According to patent US9080214B2, “Genetic markers for efficacy of iloperidone in the treatment of psychotic symptoms” (Vanda Pharmaceuticals, Inc., priority 2007, dated 2015):

System: individuals diagnosed with schizophrenia
Assay: Change in PANSS-T by SNP genotype, patients on iloperidone 24 mg/day b.i.d. for 28 days (MMRM, LOCF)
Format: in vivo, human
Text: Earlier studies investigated an association between a polymorphism in the CNTF gene and iloperidone efficacy as well as associations between CYP2D6 and KCNQ1 genotypes and changes in QT interval following the administration of iloperidone. The present study involved the genotyping of DNA samples collected from 426 individuals diagnosed with schizophrenia in an attempt to identify additional SNPs associated with iloperidone efficacy. Each sample was genotyped at more than 500,000 SNP loci using the GeneChip® Human Mapping 500K Array Set (Affymetrix, Santa Clara, Calif.) and using assays developed in-house. Approximately half of the participants in the study were administered 24 mg/day of iloperidone, b.i.d., for 28 days. About 25% of the patients were administered ziprasidone. The remaining participants were administered a placebo. Three analyses of the PANSS-T were conducted. 1) A two-step approach where samples were randomly split into 2 groups of iloperidone-treated patients used to discover SNPs associated with changed in PANSS-T (Discovery phase) and a second group to confirm the 100 most significant SNPs (Confirmatory phase). 2) A one-step approach using the Last Observation Carried Forward (LOCF) PANSS-T data of all iloperidone-treated patients. For each SNP, the most parsimonious genetic model (e.g., homozygous for one allele v. all other genotypes [i.e., AA v. AB and BB], heterozygous v. homozygous [i.e., AB v. AA and BB]) was established with respect to iloperidone efficacy using a one-way analysis of variance (ANOVA). 3) A Mixed-effects Model Repeated Measures (MMRM) analysis was subsequently conducted using the best genetic model of each SNP in the MMRM model. MMRM analyses were also conducted with the PANSS subscales PANSS-P, PANSS-N, and PANSS-GP. The SNPs with a statistically significant association in all 3 analyses of PANSS-T, as well as the best of each analysis were considered significant findings and are listed below in Table 1. Results for each of these SNPs with the PANSS-T scales and with the three subscales PANSS-P, PANSS-N, and PANSS-GP are shown in Tables 2, 3, 4, and 5, respectively. As used herein, “greater iloperidone efficacy” means an improvement in PANSS-T score of at least about 20%. In the current study, this means an improvement of at least 13 points.

## COc1cc(C(C)=O)ccc1OCCCN1CCC(c2noc3cc(F)ccc23)CC1 [iloperidone, 1-[4-[3-[4-(6-fluoro-1,2-benzisoxazol-3-yl)-1-piperidinyl]propoxy]-3-methoxyphenyl]ethanone]
SNP_A-1819750 (CREG1) genotype A_A
  mean of change in PANSS-T: −18.13
SNP_A-1819750 (CREG1) genotype A_B*
  mean of change in PANSS-T: −10.74
SNP_A-1819750 (CREG1) genotype B_B
  mean of change in PANSS-T: −16.05
SNP_A-1819750 (CREG1) genotype nonAB**
  mean of change in PANSS-T: −16.72
SNP_A-1860353 (RAP1B) genotype A_A**
  mean of change in PANSS-T: −37.40
SNP_A-1860353 (RAP1B) genotype A_B
  mean of change in PANSS-T: −11.79
SNP_A-1860353 (RAP1B) genotype B_B
  mean of change in PANSS-T: −11.84
SNP_A-1860353 (RAP1B) genotype nonAA*
  mean of change in PANSS-T: −11.83
SNP_A-1934663 genotype A_A
  mean of change in PANSS-T: −18.67
SNP_A-1934663 genotype A_B
  mean of change in PANSS-T: −18.34
SNP_A-1934663 genotype B_B*
  mean of change in PANSS-T: −8.39
SNP_A-1934663 genotype nonBB**
  mean of change in PANSS-T: −18.40
SNP_A-1973093 (KIAA0040) genotype A_A
  mean of change in PANSS-T: −14.99
SNP_A-1973093 (KIAA0040) genotype A_B*
  mean of change in PANSS-T: −6.21
SNP_A-1973093 (KIAA0040) genotype B_B
  mean of change in PANSS-T: −16.73
SNP_A-1973093 (KIAA0040) genotype nonAB**
  mean of change in PANSS-T: −16.39
SNP_A-1975928 (SLC2A9) genotype A_A
  mean of change in PANSS-T: −13.09
SNP_A-1975928 (SLC2A9) genotype A_B
  mean of change in PANSS-T: −13.17
SNP_A-1975928 (SLC2A9) genotype B_B*
  mean of change in PANSS-T: 16.38
SNP_A-1975928 (SLC2A9) genotype nonBB**
  mean of change in PANSS-T: −13.11
SNP_A-1987915 (GPR126) genotype A_A
  mean of change in PANSS-T: −9.87
SNP_A-1987915 (GPR126) genotype A_B
  mean of change in PANSS-T: −9.61
SNP_A-1987915 (GPR126) genotype B_B**
  mean of change in PANSS-T: −17.29
SNP_A-1987915 (GPR126) genotype nonBB*
  mean of change in PANSS-T: −9.67
SNP_A-2007721 (LOC58486) genotype A_A
  mean of change in PANSS-T: −4.55
SNP_A-2007721 (LOC58486) genotype A_B**
  mean of change in PANSS-T: −22.64
SNP_A-2007721 (LOC58486) genotype B_B
  mean of change in PANSS-T: −9.55
SNP_A-2007721 (LOC58486) genotype nonAB*
  mean of change in PANSS-T: −9.52
SNP_A-2044214 (HNT) genotype A_A
  mean of change in PANSS-T: −15.71
SNP_A-2044214 (HNT) genotype A_B*
  mean of change in PANSS-T: −7.43
SNP_A-2044214 (HNT) genotype B_B
  mean of change in PANSS-T: −14.43
SNP_A-2044214 (HNT) genotype nonAB**
  mean of change in PANSS-T: −15.26
SNP_A-2048427 (NPAS3) genotype A_A
  mean of change in PANSS-T: −19.94
SNP_A-2048427 (NPAS3) genotype A_B
  mean of change in PANSS-T: −20.15
SNP_A-2048427 (NPAS3) genotype B_B*
  mean of change in PANSS-T: −9.20
SNP_A-2048427 (NPAS3) genotype nonBB**
  mean of change in PANSS-T: −20.12
SNP_A-2070454 (NKX2-5) genotype A_A
  mean of change in PANSS-T: −9.88
SNP_A-2070454 (NKX2-5) genotype A_B
  mean of change in PANSS-T: −10.39
SNP_A-2070454 (NKX2-5) genotype B_B**
  mean of change in PANSS-T: −18.31
SNP_A-2070454 (NKX2-5) genotype nonBB*
  mean of change in PANSS-T: −10.23
SNP_A-2076797 (NUDT9P1) genotype A_A
  mean of change in PANSS-T: −7.14
SNP_A-2076797 (NUDT9P1) genotype A_B**
  mean of change in PANSS-T: −18.73
SNP_A-2076797 (NUDT9P1) genotype B_B
  mean of change in PANSS-T: −6.04
SNP_A-2076797 (NUDT9P1) genotype nonAB*
  mean of change in PANSS-T: −6.61
SNP_A-2103099 (HTR1A) genotype A_A
  mean of change in PANSS-T: −17.43
SNP_A-2103099 (HTR1A) genotype A_B*
  mean of change in PANSS-T: −8.31
SNP_A-2103099 (HTR1A) genotype B_B
  mean of change in PANSS-T: −16.12
SNP_A-2103099 (HTR1A) genotype nonAB**
  mean of change in PANSS-T: −16.60
SNP_A-2120958 genotype A_A
  mean of change in PANSS-T: −13.95
SNP_A-2120958 genotype A_B
  mean of change in PANSS-T: −13.71
SNP_A-2120958 genotype B_B*
  mean of change in PANSS-T: 2.48
SNP_A-2120958 genotype nonBB**
  mean of change in PANSS-T: −13.85
SNP_A-2170121 (C6) genotype A_A
  mean of change in PANSS-T: −8.94
SNP_A-2170121 (C6) genotype A_B**
  mean of change in PANSS-T: −21.93
SNP_A-2170121 (C6) genotype B_B
  mean of change in PANSS-T: −11.50
SNP_A-2170121 (C6) genotype nonAB*
  mean of change in PANSS-T: −9.17
SNP_A-2274533 (LZTS1) genotype A_A**
  mean of change in PANSS-T: −15.95
SNP_A-2274533 (LZTS1) genotype A_B
  mean of change in PANSS-T: −6.04
SNP_A-2274533 (LZTS1) genotype B_B
  mean of change in PANSS-T: −6.21
SNP_A-2274533 (LZTS1) genotype nonAA*
  mean of change in PANSS-T: −6.08
SNP_A-2283283 (XKR4) genotype A_A*
  mean of change in PANSS-T: −3.30
SNP_A-2283283 (XKR4) genotype A_B
  mean of change in PANSS-T: −14.57
SNP_A-2283283 (XKR4) genotype B_B
  mean of change in PANSS-T: −15.66
SNP_A-2283283 (XKR4) genotype nonAA**
  mean of change in PANSS-T: −15.02
SNP_A-2284243 (GRIA4) genotype A_A
  mean of change in PANSS-T: −15.30
SNP_A-2284243 (GRIA4) genotype A_B
  mean of change in PANSS-T: −15.17
SNP_A-2284243 (GRIA4) genotype B_B*
  mean of change in PANSS-T: −3.30
SNP_A-2284243 (GRIA4) genotype nonBB**
  mean of change in PANSS-T: −15.22
SNP_A-4204396 (CDH13) genotype A_A
  mean of change in PANSS-T: −13.72
SNP_A-4204396 (CDH13) genotype A_B
  mean of change in PANSS-T: −14.04
SNP_A-4204396 (CDH13) genotype B_B*
  mean of change in PANSS-T: 4.89
SNP_A-4204396 (CDH13) genotype nonBB**
  mean of change in PANSS-T: −13.84
SNP_A-4212785 (PPP1R3B) genotype A_A*
  mean of change in PANSS-T: 25.90
SNP_A-4212785 (PPP1R3B) genotype A_B
  mean of change in PANSS-T: −13.66
SNP_A-4212785 (PPP1R3B) genotype B_B
  mean of change in PANSS-T: −13.56
SNP_A-4212785 (PPP1R3B) genotype nonAA**
  mean of change in PANSS-T: −13.60
SNP_A-4230979 (ASB3) genotype A_A
  mean of change in PANSS-T: −6.70
SNP_A-4230979 (ASB3) genotype A_B
  mean of change in PANSS-T: −8.77
SNP_A-4230979 (ASB3) genotype B_B**
  mean of change in PANSS-T: −18.82
SNP_A-4230979 (ASB3) genotype nonBB*
  mean of change in PANSS-T: −8.34
SNP_A-4256833 (MLCK) genotype A_A
  mean of change in PANSS-T: −15.19
SNP_A-4256833 (MLCK) genotype A_B*
  mean of change in PANSS-T: −6.20
SNP_A-4256833 (MLCK) genotype B_B
  mean of change in PANSS-T: −15.15
SNP_A-4256833 (MLCK) genotype nonAB**
  mean of change in PANSS-T: −15.15
SNP_A-4258279 (RRM1) genotype A_A
  mean of change in PANSS-T: −13.42
SNP_A-4258279 (RRM1) genotype A_B*
  mean of change in PANSS-T: −2.55
SNP_A-4258279 (RRM1) genotype B_B
  mean of change in PANSS-T: −14.72
SNP_A-4258279 (RRM1) genotype nonAB**
  mean of change in PANSS-T: −14.70
